Results taken from US9802962B2, “Tricyclic pyrone compounds reduce amyloid beta aggregates” (priority 2013, dated 2017).

Legend:
5×FAD mice = experiment: In vivo efficacy in 5×FAD mice
Experimental: FIGS. 6A-6E. 2-month-old 5×FAD mice were treated with TP70 or vehicle for 6 weeks as described in the text. Four cortical sections evenly distributed through the cerebrum were taken from one hemisphere of each mouse (6 mice in each treatment group) and fluorescently stained with the amyloid dye FSB (blue) and the nuclear dye propidium iodide (PI, red). A: Representative sections that show the PI stain. B: Representative sections that only show the FSB stain. C: Fluorescent staining was objectively quantified by LSC. […] E: A representative Western blot containing the soluble fractions of three mice of each group was analyzed for soluble Aβ dimer (see ref 59 for the method).
Although the mechanism of neuron loss in Alzheimer's disease (AD) remains elusive, it is associated with cerebral accumulation of Aβ42. The 5×FAD mouse model of amyloid deposition expresses five familial AD (FAD) mutations that are additive in driving Aβ42 overproduction.

[1] = Cerep in vitro profiling (protein binding, absorption, metabolic stability, off target activity); assay type: in vitro ADME; conditions: Caco-2, P-gp, human liver microsomes, CYPs, HepG2 viability, hERG
APP/PS1 mice = experiment: SmartCage homecage activity and locomotion in APP/PS1 mice; assay type: in vivo; conditions: Day 7, TP70 in drinking water, treatment versus control group
Experimental: FIGS. 8A-8D. Effects of TP70 on homecage activity and locomotion in homecage monitored using the SmartCage™ system A. Active time in each time block during 24 hours. B. Travel distance in each time block during 24 hours. C. Travel speed in each time block during 24 hours. D. Rearing activity in each time block during 24 hours. The gray shadow indicates dark phase of a 12:12 light/dark cycle.
The validated SmartCage™ system that enables automated, objective, quantitative and long-term evaluation of neuropsychological endpoints at the animal's home cages (Flores, et al., IEEE Trans Biomed Eng, 2007, 54:225-233; Xiong, et al., Stroke, 2011, 42:2026-2032; Carter, et al., Nat Neurosci, 2010, 13:1526-1533; Khroyan, et al., Clin Exp Pharmacol Physiol, 2012, 39:614-622) was used to complement other special individual learning and memory tests (Shineman, et al., Alzheimers Res Ther, 2011, 3:28; Hamann, et al., Neuropsychologia, 2002, 40:1187-1195; Aultman, et al., Psychopharmacology (Berl), 2001, 153:353-364; Ashe, K H, J Alzheimers Dis, 2006, 9:123-126). […] Homecage activity and locomotion were assessed on Day 7 after the treatment and the blood samples were collected from each mouse after the assessment of general behavior. […]

[2] = Plasma PK and bioavailability, iv versus po, in mice; assay type: in vivo
Experimental: FIG. 5. Plasma concentrations of TP70 following iv or po administration (25 mg/Kg; iv, n=3 in each timepoint; or po, n=3 in each timepoint). Plasma concentrations were plotted against time post-dosing.
Since the drug will ultimately be administered orally, the bioavailability (F) of TP70 was determined in mice (male C57BL/6, 4 to 6 months old, n=3/group). Each mouse was treated with TP 70 (25 mg/kg). The drug was initially dissolved in pure dimethyl sulfoxide (DMSO) and then diluted with 0.5% hydroxypropylcellulose (HPC) in distilled water in a final solution containing 2% DMSO. At different time points about 50 μl plasma was sampled via tail cut for blood collection with a tube treated with ethylenediaminetetraacetic acid (EDTA). The compound was measured using HPLC/mass spectrometer. The maximal plasma concentration following iv administration is 16.6±6.1 μg/ml (equivalent to 42 μM) and po is 6.9±0.17 μg/ml (equivalent to 17 μM).

ACAT = ACAT inhibition; assay type: biochemical; conditions: read-out: half maximal inhibitory concentration (IC50), ACAT
Source text: It has been reported that an induction of cholesterol efflux resulting in a reduction of Aβ formation/deposition in vitro and in vivo (Kim, et al., J Alzheimers Dis, 2009, 16:121-131). For additional Detail, see the attached manuscript entitled, “Inhibition of Acyl-CoA: Cholesterol Acyltransferase (ACAT), Overexpression of Cholesterol Transporter Gene, and Protection of Amyloid β (Aβ) Oligomers-Induced Neuronal Cell Death by Tricylic Pyrone Molecules” which is incorporated herein.

[3] = log P by octanol/water partition; assay type: physicochemical

Cc1cc2c(c(=O)o1)C=C1CCC(C(C)CNCc3ccc(O)cc3)CC1O2 (centres unmarked) [TP70]
plaque count (FSB stain), cortical sections (5×FAD mice; 2-month-old 5×FAD mice, 6 weeks oral treatment, versus vehicle, LSC): substantial reduction of plaque count | nuclear count (PI stain), cortical sections (5×FAD mice; 2-month-old 5×FAD mice, 6 weeks treatment, versus vehicle, LSC): no difference in nuclear count | cerebral amyloid load (5×FAD mice; 5×FAD mice): substantially reduce | drug toxicity during the course of treatment (5×FAD mice; 5×FAD mice): no apparent drug toxicity | histopathology, hematological counts, and blood chemistry at necropsy (5×FAD mice; 5×FAD mice): No abnormalities | levels of toxic Aβ dimers (5×FAD mice; 5×FAD mice): substantially reduce | druggable profile versus currently used drugs or reference compounds [1]: druggable profiles better or similar to several currently used drugs or reference compounds | homecage activity and locomotion (APP/PS1 mice): no significant differences | Average concentration of TP70 in plasma ([2]; iv route, 5 min): 16.6 ± 6.1 mg/L | Average concentration of TP70 in plasma ([2]; iv route, 15 min): 10.2 ± 4 mg/L | Average concentration of TP70 in plasma ([2]; iv route, 30 min): 8.2 ± 3.5 mg/L | Average concentration of TP70 in plasma ([2]; iv route, 60 min): 3.7 ± 0.8 mg/L | Average concentration of TP70 in plasma ([2]; iv route, 120 min): 2.02 ± 0.6 mg/L | Average concentration of TP70 in plasma ([2]; iv route, 240 min): 1.8 ± 0.5 mg/L | Average concentration of TP70 in plasma ([2]; iv route, 360 min): 0.9 ± 0.3 mg/L | F ([2]; iv route, fraction): 1 | Area under the curve (AUC) ([2]; iv, 25 mg/kg): 989 | maximal plasma concentration ([2]; iv, 25 mg/kg): 16.6 ± 6.1 µg/mL | maximal plasma concentration (equivalent) ([2]; iv, 25 mg/kg): 42 µM | t1/2 ([2]; iv, 25 mg/kg): around 30 min | Average concentration of TP70 in plasma ([2]; oral gavage (po) route, 15 min): 2.8 ± 0.09 mg/L | Average concentration of TP70 in plasma ([2]; oral gavage (po) route, 30 min): 3.9 ± 0.14 mg/L | Average concentration of TP70 in plasma ([2]; oral gavage (po) route, 60 min): 6.9 ± 0.17 mg/L | Average concentration of TP70 in plasma ([2]; oral gavage (po) route, 120 min): 4.2 ± 0.19 mg/L | Average concentration of TP70 in plasma ([2]; oral gavage (po) route, 240 min): 2.4 ± 1.37 mg/L | Average concentration of TP70 in plasma ([2]; oral gavage (po) route, 360 min): 1.2 ± 0.23 mg/L | bioavailability (F) ([2]; po versus iv, 25 mg/kg): 68% | Area under the curve (AUC) ([2]; po, 25 mg/kg): 678 | maximal plasma concentration ([2]; po, 25 mg/kg): 6.9 ± 0.17 µg/mL | maximal plasma concentration (equivalent) ([2]; po, 25 mg/kg): 17 µM | IC50 (ACAT): 300 nM | log P [3]: 1.90
